This is an account of results in US9968626B2, “Method for treating obesity” (Rhamnopharma Inc., priority 2011, dated 2018).

A short description of the experiment: Body weight of allergic-rhinitis-sensitized Balb/C mice after intranasal rhamnolipid doses (Example 1). Type of experiment: in vivo. Particulars: 0.5% solution in saline, 5 μl per nostril at two time points on Day 37 (total 20 μl). The text has this:
Originally, the objective of this study was to determine the effects of treatment with three different pharmaceutical formulations of rhamnolipids within the context of an allergic rhinitis study in mice. However, the weight loss effects due to treatment with the various rhamnolipids were unexpectedly discovered during the course of this study. Materials Animal: Balb/C mice were used in this study and were eight weeks old. The treatment groups and the placebo group were each composed of 10 mice. Allergenization was performed in a similar fashion as reported in the literature. Sensitization Materials: The following were used to sensitize and induce allergic rhinitis in the mice:
Mice were sensitized once-weekly with four intraperitoneal injections of OVA/Alum (Day 0, […], 14 and 21). From Day 22-39, anesthetized mice were administered once-daily doses of the OVA stock solution instilled in each nostril.
On Day 37, mice were assigned to one of three rhamnolipid treatment groups or a placebo group. The rhamnolipid treatment groups received a rhamnolipid mixture containing RPI-100, RPI-200, or RPI-300. […] Body weights of the mice were measured and recorded on Days 35, 37, and 39 as part of a standard animal safety observation protocol. […]

Consider `CCCCCCCC(CC(=O)O)OC(=O)CC(CCCCCCC)O[C@@H]1O[C@@H](C)[C@H](O)[C@@H](O)[C@H]1O` (stereo partly drawn) [RPI-200, L-rhamnosyl-β-hydroxydecanoyl-β-hydrocydecanoate], for which the “body weight, 2 days post-treatment (Day 39) compared with 2 days pre-treatment (Day 35), versus placebo” value was “statistically significant reduction in body weight”.
